# Assay results: publication PMC11364104, “Discovery of SARS-CoV-2 papain-like protease (PL^pro) inhibitors with efficacy in a murine infection model” (Science Advances, 2024)
# Like-named read-outs stand apart in the source and are kept apart here.
# Tests used:
# in vitro [1] = conditions: human, hepatocytes
# in vitro [2] = conditions: dog, MDCK
# SARS-CoV-2 = assay: microbe, parasite or virus in culture; type: cell-based
# SARS-CoV-2 PL^pro = SARS-CoV-2 PL^pro (Severe acute respiratory syndrome coronavirus 2, UniProt P0DTD1); assay: PLpro enzymatic assay (Z-RLRGG-AMC substrate cleavage); type: biochemical; conditions: geometric mean of at least three replicates
# [3] = Metabolic stability in cryopreserved human hepatocytes
# [4] = RRCK passive permeability; conditions: dog, MDCK
# [5] = Severe acute respiratory syndrome coronavirus 2, Vero C1008, read-out: SARS-CoV-2 Vero E6 EC50 (nM)*
compound,measurement,setting,value
Cc1ccc(N)cc1C(=O)N[C@H](C)c1cccc2ccccc12 [Compound 1],hepatocyte CLint,in vitro [1],20.9 µL/min/1e6 cells
same,Papp,in vitro [2],45.6 ×10⁻⁶ cm/s
same,EC50,"SARS-CoV-2; Severe acute respiratory syndrome coronavirus 2, Vero C1008, read-out: EC50, cytopathic effect (CPE)",68200 nM
Cc1ccccc1C(=O)N[C@H](C)c1cc(-c2cnn(C)c2)nc2ccccc12 [Compound 2],Ki,SARS-CoV-2 PL^pro,116 nM
same,EC50,SARS-CoV-2; [5],1580 nM
same,hepatocyte CLint,[3],13.9 µL/min/1e6 cells
same,Papp,[4],42 ×10⁻⁶ cm/s
Cc1ccc(N2CCN(C)CC2)cc1C(=O)N[C@H](C)c1cc(-c2cnn(C)c2)nc2ccccc12 [Compound 3],EC50,SARS-CoV-2; [5],652 nM
same,hepatocyte CLint,[3],12.8 µL/min/1e6 cells
same,Papp,[4],41.9 ×10⁻⁶ cm/s
